Source: PubChem BioAssay (NCI)
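Briefly, cells in 96-well plates were exposed to five compound concentrations for 48 h, and endpoints were estimated by linear interpolation. GI50 is the concentration that inhibits growth by half. Definition used: TGI = concentration required for complete inhibition of growth.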

Key:
Assay in all cases: DTP human tumour cell line panel, 48 h
HS 578T breast = tested on: HS 578T breast
MOLT-4 leukemia = tested on: MOLT-4 leukemia
SK-MEL-5 melanoma = tested on: SK-MEL-5 melanoma
SN12C renal = tested on: SN12C renal
HCT-15 colon = tested on: HCT-15 colon
A549 NSCLC = tested on: A549 NSCLC
A498 renal = tested on: A498 renal
DU-145 prostate = tested on: DU-145 prostate
T-47D breast = tested on: T-47D breast
EKVX NSCLC = tested on: EKVX NSCLC
COLO 205 colon = tested on: COLO 205 colon
HCT-116 colon = tested on: HCT-116 colon
KM12 colon = tested on: KM12 colon
HCC-2998 colon = tested on: HCC-2998 colon
786-0 renal = tested on: 786-0 renal
OVCAR-3 ovarian = tested on: OVCAR-3 ovarian
NCI-H23 lung = tested on: NCI-H23 lung
RPMI-8226 leukemia = tested on: RPMI-8226 leukemia
NCI-H522 lung = tested on: NCI-H522 lung
NCI-H226 lung = tested on: NCI-H226 lung
MDA-MB-435 = tested on: MDA-MB-435
SF-295 CNS = tested on: SF-295 CNS
SK-MEL-28 melanoma = tested on: SK-MEL-28 melanoma
PC-3 prostate = tested on: PC-3 prostate
SR leukemia = tested on: SR leukemia
OVCAR-4 ovarian = tested on: OVCAR-4 ovarian
OVCAR-8 ovarian = tested on: OVCAR-8 ovarian
K-562 leukemia = tested on: K-562 leukemia
IGROV1 ovarian = tested on: IGROV1 ovarian
UO-31 renal = tested on: UO-31 renal
HOP-62 NSCLC = tested on: HOP-62 NSCLC
ACHN renal = tested on: ACHN renal
TK-10 renal = tested on: TK-10 renal
LOX IMVI melanoma = tested on: LOX IMVI melanoma
HOP-92 NSCLC = tested on: HOP-92 NSCLC
MDA-MB-231 breast = tested on: MDA-MB-231 breast
SK-MEL-2 melanoma = tested on: SK-MEL-2 melanoma
UACC-257 melanoma = tested on: UACC-257 melanoma
BT-549 breast = tested on: BT-549 breast
CCRF-CEM leukemia = tested on: CCRF-CEM leukemia
NCI/ADR-RES ovarian = tested on: NCI/ADR-RES ovarian
SF-268 CNS = tested on: SF-268 CNS
CAKI-1 renal = tested on: CAKI-1 renal
OVCAR-5 ovarian = tested on: OVCAR-5 ovarian
SF-539 CNS = tested on: SF-539 CNS
U251 CNS = tested on: U251 CNS
RXF 393 renal = tested on: RXF 393 renal
NCI-H460 lung = tested on: NCI-H460 lung
HT29 colon = tested on: HT29 colon
M14 melanoma = tested on: M14 melanoma
SW-620 colon = tested on: SW-620 colon
SNB-75 CNS = tested on: SNB-75 CNS
SK-OV-3 ovarian = tested on: SK-OV-3 ovarian
HL-60(TB) leukemia = tested on: HL-60(TB) leukemia
SNB-19 CNS = tested on: SNB-19 CNS
MCF7 breast = tested on: MCF7 breast
UACC-62 melanoma = tested on: UACC-62 melanoma

## CCNc1nc(O)c(/C=C2\C=Nc3ncccc32)s1
HS 578T breast
  GI50: 2.95 µM
  TGI: 8.29 µM
MOLT-4 leukemia
  GI50: 3.21 µM
  TGI: 12.6 µM
SK-MEL-5 melanoma
  GI50: 3 µM
  TGI: 9.47 µM
SN12C renal
  GI50: 3.58 µM
  TGI: 37.5 µM
HCT-15 colon
  GI50: 5.18 µM
  TGI: > 100 µM
A549 NSCLC
  GI50: 16.5 µM
  TGI: > 100 µM
A498 renal
  GI50: 2.12 µM
  TGI: 6.15 µM
DU-145 prostate
  GI50: 3.25 µM
  TGI: 47.4 µM
T-47D breast
  GI50: 2.02 µM
  TGI: 7.62 µM
EKVX NSCLC
  GI50: 16.6 µM
  TGI: > 100 µM
COLO 205 colon
  GI50: 3.54 µM
  TGI: 13 µM
HCT-116 colon
  GI50: 2.5 µM
  TGI: > 100 µM
KM12 colon
  GI50: 3.05 µM
  TGI: 12.4 µM
HCC-2998 colon
  GI50: 4.92 µM
  TGI: 36.7 µM
786-0 renal
  GI50: 2.71 µM
  TGI: > 100 µM
OVCAR-3 ovarian
  GI50: 2.66 µM
  TGI: 8.49 µM
NCI-H23 lung
  GI50: 2.57 µM
  TGI: 11.5 µM
RPMI-8226 leukemia
  GI50: 11.7 µM
  TGI: 68 µM
NCI-H522 lung
  GI50: 1.25 µM
  TGI: 8.83 µM
NCI-H226 lung
  GI50: 2.83 µM
  TGI: 28.7 µM
MDA-MB-435
  GI50: 3.49 µM
  TGI: 14.9 µM
SF-295 CNS
  GI50: 3.45 µM
  TGI: > 100 µM
SK-MEL-28 melanoma
  GI50: 2.72 µM
  TGI: 13.8 µM
PC-3 prostate
  GI50: 4.04 µM
  TGI: > 100 µM
SR leukemia
  GI50: 1.6 µM
  TGI: > 100 µM
OVCAR-4 ovarian
  GI50: 3.08 µM
  TGI: > 100 µM
OVCAR-8 ovarian
  GI50: 3.27 µM
  TGI: > 100 µM
K-562 leukemia
  GI50: 10 µM
  TGI: > 100 µM
IGROV1 ovarian
  GI50: 4.66 µM
  TGI: > 100 µM
UO-31 renal
  GI50: 3.44 µM
  TGI: > 100 µM
HOP-62 NSCLC
  GI50: 2.27 µM
  TGI: 7.27 µM
ACHN renal
  GI50: 2.58 µM
  TGI: > 100 µM
TK-10 renal
  GI50: 2.78 µM
  TGI: 95 µM
LOX IMVI melanoma
  GI50: 3.23 µM
  TGI: 47.5 µM
HOP-92 NSCLC
  GI50: 1.08 µM
  TGI: > 100 µM
MDA-MB-231 breast
  GI50: 4.17 µM
  TGI: > 100 µM
SK-MEL-2 melanoma
  GI50: 3.04 µM
  TGI: 8.93 µM
UACC-257 melanoma
  GI50: 4.17 µM
  TGI: 15.5 µM
BT-549 breast
  GI50: 1.66 µM
  TGI: 5.17 µM
CCRF-CEM leukemia
  GI50: 3.59 µM
  TGI: > 100 µM
NCI/ADR-RES ovarian
  GI50: 10.5 µM
  TGI: > 100 µM
SF-268 CNS
  GI50: 2.3 µM
  TGI: 7.85 µM
CAKI-1 renal
  GI50: 3.66 µM
  TGI: > 100 µM
OVCAR-5 ovarian
  GI50: 2.37 µM
  TGI: > 100 µM
SF-539 CNS
  GI50: 1.51 µM
  TGI: 3.7 µM
U251 CNS
  GI50: 2.6 µM
  TGI: 8.24 µM
RXF 393 renal
  GI50: 2.05 µM
  TGI: 4.29 µM
NCI-H460 lung
  GI50: 3.93 µM
  TGI: 17.8 µM
HT29 colon
  GI50: 4.44 µM
  TGI: > 100 µM
M14 melanoma
  GI50: 4.45 µM
  TGI: 26.9 µM
SW-620 colon
  GI50: 3.42 µM
  TGI: 27.1 µM
SNB-75 CNS
  GI50: 1.92 µM
  TGI: 4.25 µM
SK-OV-3 ovarian
  GI50: 2.86 µM
  TGI: 9.12 µM
HL-60(TB) leukemia
  GI50: 2.53 µM
  TGI: 10.2 µM
SNB-19 CNS
  GI50: 3.6 µM
  TGI: > 100 µM
MCF7 breast
  GI50: 2.55 µM
  TGI: > 100 µM
UACC-62 melanoma
  GI50: 3.01 µM
  TGI: 9.11 µM
